± gives the expanded uncertainty stated by the source.
Experiments:
[1] = 298.15 K; 101.33 kPa; Liquid; Vibrating tube method
[2] = refractive index (Na D-line) (dimensionless); conditions: 298.15 K; 101.33 kPa; Liquid; Standard Abbe refractometry

Compound `CCOS(=O)(=O)[O-].CCn1cc[n+](C)c1` [1-ethyl-3-methylimidazolium ethyl sulfate] has a mass density [1] of 1237.23 ± 0.43 kg/m3 and a refractive index [2] of 1.4791 ± 0.0007.
For `CCCCCCC` [heptane], the mass density [1] was 679.56 ± 0.19 kg/m3 and the refractive index [2] was 1.38515 ± 0.00068.
Work on `CCCCCC` [hexane] yielded a mass density [1] of 655.19 ± 0.26 kg/m3 and a refractive index [2] of 1.37234 ± 0.0007.
In the case of `CCCCCCCCC` [nonane], the mass density [1] is reported as 713.99 ± 0.25 kg/m3 and the refractive index [2] is reported as 1.40326 ± 0.0007.
`CCCCCCCC` [octane] showed a mass density [1] of 698.6 ± 0.18 kg/m3 and a refractive index [2] of 1.39519 ± 0.00068.
Compound `Cc1ccccc1` [toluene] has a mass density [1] of 862.17 ± 0.11 kg/m3 and a refractive index [2] of 1.49399 ± 0.00068.
